Patent US20230278972A1, “SUBSTITUTED HALOALKYL SULFONANILIDE HERBICIDES” (FMC Corporation, priority 2020, published 2023)

What was measured:
Type in all cases: in vivo
[1] = tested on: kochia (Bassia scoparia); assay: Test A postemergence, kochia; conditions: Postemergence, 0 to 100 scale (0 no effect, 100 complete control); for Plant response rating, Kochia: 125 g ai/ha; for Kochia plant response rating: 500 g ai/ha, visual injury vs untreated controls after approx. 10 days
Summary of the method: (§1)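 Greenhouse pot test in a loam–sand blend; compounds delivered in a non-phytotoxic solvent carrying a surfactant, applied either as a directed spray to soil at seeding or over seedlings 2 to 10 cm high with one to two leaves.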

[2] = tested on: pigweed (Amaranthus retroflexus); assay: Test A postemergence, pigweed; conditions: Postemergence, 0 to 100 scale (0 no effect, 100 complete control); for Plant response rating, Pigweed: 125 g ai/ha; for Pigweed plant response rating: 500 g ai/ha, visual injury vs untreated controls after approx. 10 days
Summary of the method: as §1

[3] = tested on: pigweed (Amaranthus retroflexus); assay: Test A preemergence, pigweed; conditions: for Pigweed plant response rating: visual injury on 0 to 100 scale (0 no effect, 100 complete control), approximately 10 days; for Plant response rating, Pigweed: 0 to 100 scale (0 no effect, 100 complete control)
Source text: Seeds of plant species selected from barnyardgrass (Echinochloa crus-galli), kochia (Bassia scoparia), ragweed (common ragweed, Ambrosia artemisiifolia), Ryegrass, Italian (Italian ryegrass, Lolium multiflorum), Foxtail, Giant (giant foxtail, Setaria faberi), and pigweed (Amaranthus retroflexus) were planted into a blend of loam soil and sand and treated preemergence with a directed soil spray using test chemicals formulated in a non-phytotoxic solvent mixture which included a surfactant. At the same time, plants selected from these weed species and also wheat (Triticum aestivum), corn (Zea mays), blackgrass (Alopecurus myosuroides), and galium (catchweed bedstraw, Galium aparine) were planted in pots containing the same blend of loam soil and sand and treated with postemergence applications of test chemicals formulated in the same manner. Plants ranged in height from 2 to 10 cm and were in the one- to two-leaf stage for the postemergence treatment. […] A dash (-) response means no test result.

[4] = tested on: Ryegrass, Italian (Italian ryegrass, Lolium multiflorum); assay: Test A postemergence, Ryegrass, Italian; conditions: Postemergence, 0 to 100 scale (0 no effect, 100 complete control); for Plant response rating, Ryegrass, Italian: 125 g ai/ha; for Ryegrass, Italian plant response rating: 500 g ai/ha, visual injury vs untreated controls after approx. 10 days
Summary of the method: as §1

[5] = tested on: Foxtail, Giant (giant foxtail, Setaria faberi); assay: Test A postemergence, Foxtail, Giant; conditions: Postemergence, 0 to 100 scale (0 no effect, 100 complete control); for Plant response rating, Foxtail, Giant: 125 g ai/ha; for Foxtail, Giant plant response rating: 500 g ai/ha, visual injury vs untreated controls after approx. 10 days
Summary of the method: as §1

[6] = tested on: Foxtail, Giant (giant foxtail, Setaria faberi); assay: Test A preemergence, Foxtail, Giant; conditions: Preemergence; for Foxtail, Giant plant response rating: visual injury on 0 to 100 scale (0 no effect, 100 complete control), approximately 10 days; for Plant response rating, Foxtail, Giant: 0 to 100 scale (0 no effect, 100 complete control)
Summary of the method: as §1

[7] = tested on: Ryegrass, Italian (Italian ryegrass, Lolium multiflorum); assay: Test A preemergence, Ryegrass, Italian; conditions: Preemergence; for Ryegrass, Italian plant response rating: visual injury on 0 to 100 scale (0 no effect, 100 complete control), approximately 10 days; for Plant response rating, Ryegrass, Italian: 0 to 100 scale (0 no effect, 100 complete control)
Summary of the method: as §1

[8] = tested on: ragweed (common ragweed, Ambrosia artemisiifolia); assay: Test A preemergence, ragweed; conditions: Preemergence; for Ragweed plant response rating: visual injury on 0 to 100 scale (0 no effect, 100 complete control), approximately 10 days; for Plant response rating, Ragweed: 0 to 100 scale (0 no effect, 100 complete control)
Summary of the method: as §1

[9] = tested on: kochia (Bassia scoparia); assay: Test A preemergence, kochia; conditions: Preemergence; for Kochia plant response rating: visual injury on 0 to 100 scale (0 no effect, 100 complete control), approximately 10 days; for Plant response rating, Kochia: 0 to 100 scale (0 no effect, 100 complete control)
Summary of the method: as §1

[10] = tested on: galium (catchweed bedstraw, Galium aparine); assay: Test A postemergence, galium; conditions: Postemergence, 0 to 100 scale (0 no effect, 100 complete control); for Plant response rating, Galium: 125 g ai/ha; for Galium plant response rating: 500 g ai/ha, visual injury vs untreated controls after approx. 10 days
Summary of the method: (§2)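 After sowing into a sand-amended loam, pots for the preemergence test were treated by spraying directly onto soil. In parallel, seedlings at the one- to two-leaf stage and 2 to 10 cm tall were treated postemergence with the identical surfactant-containing formulation.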

[11] = tested on: blackgrass (Alopecurus myosuroides); assay: Test A postemergence, blackgrass; conditions: Postemergence, 0 to 100 scale (0 no effect, 100 complete control); for Plant response rating, Blackgrass: 125 g ai/ha; for Blackgrass plant response rating: 500 g ai/ha, visual injury vs untreated controls after approx. 10 days
Summary of the method: as §1

[12] = tested on: ragweed (common ragweed, Ambrosia artemisiifolia); assay: Test A postemergence, ragweed; conditions: Postemergence, 0 to 100 scale (0 no effect, 100 complete control); for Plant response rating, Ragweed: 125 g ai/ha; for Ragweed plant response rating: 500 g ai/ha, visual injury vs untreated controls after approx. 10 days
Summary of the method: as §1

[13] = tested on: wheat (Triticum aestivum); assay: Test A postemergence, wheat; conditions: Postemergence, 0 to 100 scale (0 no effect, 100 complete control); for Plant response rating, Wheat: 125 g ai/ha; for Wheat plant response rating: 500 g ai/ha, visual injury vs untreated controls after approx. 10 days
Summary of the method: as §2

[14] = tested on: corn (Zea mays); assay: Test A postemergence, corn; conditions: Postemergence, 0 to 100 scale (0 no effect, 100 complete control); for Plant response rating, Corn: 125 g ai/ha; for Corn plant response rating: 500 g ai/ha, visual injury vs untreated controls after approx. 10 days
Summary of the method: as §1

[15] = tested on: barnyardgrass (Echinochloa crus-galli); assay: Test A preemergence, barnyardgrass; conditions: Preemergence; for Barnyardgrass plant response rating: visual injury on 0 to 100 scale (0 no effect, 100 complete control), approximately 10 days; for Plant response rating, Barnyardgrass: 0 to 100 scale (0 no effect, 100 complete control)
Summary of the method: as §1

[16] = 125 g ai/ha, visual injury, approx. 10 days

SMILES	Plant response rating, Kochia ([1]; visual injury approx. 10 days)	Kochia plant response rating [1]	Plant response rating, Pigweed ([2]; visual injury approx. 10 days)	Pigweed plant response rating [2]	Pigweed plant response rating ([3]; 125 g ai/ha)	Plant response rating, Pigweed ([3]; 500 g ai/ha)	Plant response rating, Ryegrass, Italian ([4]; visual injury approx. 10 days)	Ryegrass, Italian plant response rating [4]	Plant response rating, Foxtail, Giant ([5]; visual injury approx. 10 days)	Foxtail, Giant plant response rating [5]	Foxtail, Giant plant response rating ([6]; 125 g ai/ha)	Plant response rating, Foxtail, Giant ([6]; 500 g ai/ha)	Ryegrass, Italian plant response rating ([7]; 125 g ai/ha)	Plant response rating, Ryegrass, Italian ([7]; 500 g ai/ha)	Galium plant response rating [10]	Blackgrass plant response rating [11]	Ragweed plant response rating [12]	Wheat plant response rating [13]	Corn plant response rating [14]	Plant response rating, Barnyardgrass ([15]; 500 g ai/ha)	other results
Cc1cc(C)c(-c2cc(Cl)nn(C)c2=O)cc1NS(=O)(=O)C(F)(F)F [Compound 72]	40	90	60	80	80	100	60	80	90	90	100	100	90	100	90	80	70	70	50	100	Ragweed plant response rating ([8]; 125 g ai/ha): 80; Plant response rating, Ragweed ([8]; 500 g ai/ha): 90; Kochia plant response rating ([9]; 125 g ai/ha): 100; Plant response rating, Kochia ([9]; 500 g ai/ha): 100; Plant response rating, Galium ([10]; visual injury approx. 10 days): 70; Plant response rating, Blackgrass ([11]; visual injury approx. 10 days): 50; Plant response rating, Ragweed ([12]; visual injury approx. 10 days): 20; Plant response rating, Wheat ([13]; visual injury approx. 10 days): 60; Plant response rating, Corn ([14]; visual injury approx. 10 days): 0; Barnyardgrass plant response rating ([15]; 125 g ai/ha): 90
Cc1cc(C)c(C2=NOC3(CCC3)C2)cc1NS(=O)(=O)C(F)(F)F [Compound 228]		80		70				60		40					90	0	30	70	70	100	Plant response rating, Kochia [1]: 20; Plant response rating, Pigweed [2]: 30; Plant response rating, Pigweed [3, 16]: 100; Pigweed plant response rating ([3]; 500 g ai/ha): 100; Plant response rating, Ryegrass, Italian [4]: 0; Plant response rating, Foxtail, Giant [5]: 0; Plant response rating, Foxtail, Giant [6, 16]: 90; Foxtail, Giant plant response rating ([6]; 500 g ai/ha): 100; Plant response rating, Ryegrass, Italian [7, 16]: 100; Ryegrass, Italian plant response rating ([7]; 500 g ai/ha): 100; Plant response rating, Ragweed [8, 16]: 10; Ragweed plant response rating ([8]; 500 g ai/ha): 70; Plant response rating, Kochia [9, 16]: 60; Kochia plant response rating ([9]; 500 g ai/ha): 90; Plant response rating, Galium [10]: 80; Plant response rating, Blackgrass [11]: 0; Plant response rating, Ragweed [12]: 20; Plant response rating, Wheat [13]: 0; Plant response rating, Corn [14]: 10; Plant response rating, Barnyardgrass [15, 16]: 100
Cc1cc(C)c(N(S(=O)(=O)C(F)(F)F)S(=O)(=O)C(F)(F)F)cc1-c1ccnn(C)c1=O [Compound 76]	50	90	70	90	50	100	70	80	90	90	100	100	60	100	100	50	90	80	70	90	Ragweed plant response rating ([8]; 125 g ai/ha): 70; Plant response rating, Ragweed ([8]; 500 g ai/ha): 90; Kochia plant response rating ([9]; 125 g ai/ha): 60; Plant response rating, Kochia ([9]; 500 g ai/ha): 90; Plant response rating, Galium ([10]; visual injury approx. 10 days): 90; Plant response rating, Blackgrass ([11]; visual injury approx. 10 days): 50; Plant response rating, Ragweed ([12]; visual injury approx. 10 days): 60; Plant response rating, Wheat ([13]; visual injury approx. 10 days): 40; Plant response rating, Corn ([14]; visual injury approx. 10 days): 0; Barnyardgrass plant response rating ([15]; 125 g ai/ha): 90
